Measurements: patent US9925263B2, “Liquid pharmaceutical formulations for injection comprising procaine and uses thereof” (EAGLE BIOLOGICS, INC., priority 2013, dated 2018)
Structures can show the parent of a compound that is named as a salt.

Experiments:
[1] = test system: biosimilar AVASTIN®; assay: Viscosity of aqueous solutions of biosimilar AVASTIN® with viscosity-lowering agents; assay type: physicochemical
Procedure: (unless otherwise indicated).
The protein was formulated to contain either 0.25 M phosphate buffer or 0.25 M CSAL.
Subsequently, the appropriate amount of viscosity-lowering agent was added to result in a final viscosity-lowering agent concentration of 0.15-0.35 M upon reconstitution.
The viscosity-lowering agent(s) were added in an amount sufficient to give concentration upon reconstitution as specified below. In cases of combinations of agents, the concentration of each component is 0.15 M. The protein solutions were then freeze-dried.

[2] = test system: biosimilar ERBITUX®; assay: Viscosity of aqueous solutions of biosimilar ERBITUX® with viscosity-lowering agents; settings: for Fold Reduction: vs phosphate buffer
Procedure: All viscosities of well-mixed aqueous mAb solutions were measured using either a mVROC microfluidic viscometer (RheoSense) or a DV2T cone and plate viscometer (Brookfield; “C & P”) after a 5 minute equilibration at 25° C. (unless otherwise indicated). The mVROC viscometer was equipped with an “A” or “B” chip, each manufactured with a 50 micron channel. Typically, 0.10 mL of protein solution was back-loaded into a gastight microlab instrument syringe (Hamilton; 100 μL), affixed to the chip, and measured at multiple flow rates, approximately 20%, 40%, and 60% of the maximum pressure for each chip. […] An average absolute viscosity and standard deviation was then calculated from at least these three measurements. The C & P viscometer was equipped with a CPE40 or CPE52 spindle (cone angle of 0.8° and 3.0°, respectively) and 0.50 mL samples were measured at multiple shear rates between 2 and 400 s^−1. […] An extrapolated zero-shear viscosity was then determined from a plot of dynamic viscosity versus shear rate for the samples measured on a DV2T cone and plate viscometer. The extrapolated zero-shear viscosities reported are the average and standard deviation of at least three measurements.
First, Polysorbate 80 was removed using DETERGENT-OUT® TWEEN® Medi Columns (G-Biosciences). […] The collected protein solution was freeze-dried. The dried protein cakes, containing protein and buffer salts or agent, were reconstituted to a final volume of 0.15-1.3 mL. […] Reported protein concentrations represent the range of all protein samples included in each Table or Figure. Specifically, reported values are the median plus or minus half the range. Extrapolated zero-shear using an experimentally determined extinction coefficient of 1.4 L/g·cm and viscosities reported were measured on a DV2T cone and plate viscometer.
The final concentration of CSAL upon reconstitution in an aqueous CSAL solution ranged from 0.25 M to 0.50 M.
Specifically, 20 mM solutions of the viscosity-lowering agents of interest were used for buffer exchange, and the lyophilized cakes were reconstituted to 0.25 M of each viscosity-lowering agent. […] The sample was first aliquoted. […] The dried protein cakes, containing protein and viscosity-lowering agent (and a negligible amount of buffer salts) were reconstituted to a final volume of approximately 0.10 mL and viscosity-lowering agent concentration as previously described.
First, Polysorbate was removed from the commercially obtained mAb solutions.
Specifically, 20 mM solutions of the salts of interest were used for buffer exchange, and the lyophilized cakes were reconstituted to contain 0.25 M of each agent. Viscosities were measured using either a RheoSense mVROC microfluidic viscometer equipped with an “A” or “B” chip or a DV2T cone and plate viscometer.
Subsequently, the aqueous drug product was purified, buffer exchanged, concentrated, dried, reconstituted, and analyzed as described in the same manner. Viscosities reported were measured on a RheoSense mVROC microfluidic viscometer.

[3] = test system: biosimilar RITUXAN®; assay: Viscosity of aqueous solutions of biosimilar RITUXAN® with viscosity-lowering agents; settings: 25° C.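 Further: absolute viscosity of aqueous antibody solutions determined by microfluidic viscometry (mVROC chip, 50 micron channel) at several flow rates after 5 min equilibration, mean of at least three readings.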
[4] = 222 ± 5 mg/mL mAb, pH 7.0, 0.25M agent, 25° C.
[5] = 225 ± 5 mg/mL mAb, pH 7.0, 0.25M agent, 20° C.
[6] = 225 ± 5 mg/mL mAb, pH 7.0, 0.25M agent, 25° C.
[7] = 225 ± 5 mg/mL mAb, pH 7.0, 0.25M agent, 30° C.
[8] = 200 ± 5 mg/mL mAb, pH 7.0, 25° C., [Salt] 0.25 M of anion, C & P viscometer
[9] = 200 ± 5 mg/mL mAb, pH 7.0, 25° C., [Salt] […] of anion, C & P viscometer
[10] = 229 mg/mL mAb, […] agent, pH 7.0, 25° C., microfluidic
[11] = 221 mg/mL mAb, […] agent, pH 7.0, 25° C., microfluidic
[12] = 230 mg/mL mAb, agent […], 25° C.
[13] = 206 mg/mL mAb, agent […], 25° C.
[14] = 225 mg/mL mAb, agent […], 25° C.
[15] = 228 ± 5 mg/mL mAb, agent 0.25 M, 25° C., pH 7.0
[16] = 200 ± 5 mg/mL mAb, pH 7.0, 25° C., [Salt] 0.35 M of anion, C & P viscometer

Cc1nccn1CCCN.Cl.Cl [APMI*2HCl, 1-(3-aminopropyl)-2-methyl-1H-imidazole dihydrochloride]
Viscosity-lowering effect as a function of agent concentration ([1]; 0.10 vs 0.25 M APMI*2HCl, FIG. 7): viscosity-lowering effect was increased

C[C@H]1[C@H](NC(=O)/C(=N\OC(C)(C)C(=O)O)c2csc(N)n2)C(=O)N1S(=O)(=O)O [Aztreonam, reference compound]
Viscosity ([2]; 179 mg/mL mAb, 0.02M agent, 25° C.): 256 ± 4 cP

NCCCC[C@H](N)C(=O)O.O=S(=O)(O)c1ccccc1 [BSAL, benzenesulfonic acid lysine]
Viscosity ([1]; 230 ± 5 mg/mL mAb, pH 7.0, […], 20° C.): 395 ± 3 cP | Viscosity ([1]; 230 ± 5 mg/mL mAb, pH 7.0, […], 25° C.): 227 ± 5 cP | Viscosity [2, 4]: 126 ± 1 cP | Viscosity [2, 5]: 193 ± 0 cP | Viscosity [2, 6]: 126 ± 1 cP | Viscosity [2, 7]: 89.8 ± 0.8 cP

N=C(N)NCCC[C@H](N)C(=O)O.O=C(O)c1ccccc1 [Benzoic acid arginine]
Viscosity [1, 8]: 51.4 ± 0.5 cP | Viscosity [1, 9]: 52.2 ± 0.5 cP

CC1(C)C2CCC1(CS(=O)(=O)O)C(=O)C2.OCCN(CCO)CCO (stereo not drawn) [CSA Triethanolamine]
Viscosity ([1]; 238 mg/mL mAb, agent […], 25° C.): 144 ± 1 cP

CC1(C)C2CCC1(CS(=O)(=O)O)C(=O)C2.N=C(N)NOCC[C@H](N)C(=O)O (stereo not drawn) [CSA canavanine]
Viscosity [1, 8]: 75.6 ± 3.0 cP | Viscosity [1, 9]: 60.5 ± 0.6 cP

CC1(C)C2CCC1(CS(=O)(=O)O)C(=O)C2.Nc1ccncc1 (stereo not drawn) [CSA-4-aminopyridine]
Viscosity [1, 10]: 86.4 ± 1.1 cP | Viscosity ([3]; 195 mg/mL mAb, […] agent): 47.0 ± 1.4 cP | Viscosity ([3]; 233 mg/mL mAb, […] agent): 66.5 ± 0.8 cP

Cc1nnc(SCC2=C(C(=O)O)N3C(=O)[C@@H](NC(=O)Cn4cnnn4)[C@H]3SC2)s1 [Cefazolin, reference compound]
Viscosity [1, 10]: 60.6 ± 1 cP | Viscosity ([3]; 206 mg/mL mAb, […] agent): 65.1 ± 1.8 cP

CO[C@@]1(NC(=O)Cc2cccs2)C(=O)N2C(C(=O)O)=C(COC(N)=O)CS[C@@H]21 [Cefoxitin sodium salt, reference compound]
Viscosity ([2]; 194 mg/mL mAb, […] agent, 25° C.): 166 ± 8 cP

Nc1ccn(C[C@@H](CO)OCP(=O)(O)O)c(=O)n1 [Cidofovir hydrate, reference compound]
Viscosity ([1]; 210 mg/mL mAb, agent 0.02M, 25° C.): 121 ± 2 cP | Viscosity ([2]; 189 mg/mL mAb, 0.02M agent, 25° C.): 284 ± 5 cP

O=C1NC(c2ccccc2)(c2ccccc2)C(=O)N1COP(=O)(O)O [Fosphenytoin disodium salt, reference compound]
Viscosity ([2]; 188 mg/mL mAb, […] agent, 25° C.): 119 ± 2 cP

NC(CO)(CO)CO.O=C[C@H](O)[C@@H](O)[C@H](O)[C@H](O)C(=O)O [Glucuronic acid-tris]
Viscosity [1, 11]: 151 ± 5 cP | Viscosity ([1]; 221 mg/mL mAb, […] agent, pH 7.0, 25° C., microfluidic, listed as Glucuronic acid-Tris): 151 ± 5.0 cP | Viscosity ([3]; 207 mg/mL mAb, […] agent): 149 ± 13 cP

CCN(CC)CC(=O)Nc1c(C)cccc1C [Lidocaine HCl, reference compound]
Viscosity ([1]; 218 mg/mL mAb, agent […], 25° C.): 147 ± 15 cP | Viscosity ([1]; 237 mg/mL mAb, agent […], 25° C.): 97.3 ± 1.8 cP | Viscosity ([2]; 223 mg/mL mAb, […] agent, 25° C.): 33.8 ± 0.4 cP

NCCCC[C@H](N)C(=O)O [Lysine•HCl, reference compound]
Viscosity [1, 8]: 137 ± 2 cP | Viscosity [2, 4]: 128 ± 2 cP | Fold Reduction [2, 4]: 8.8 fold

CS(=O)(=O)O.N=C(N)NCCC[C@H](N)C(=O)O [MSA arginine]
Viscosity [1, 8]: 93.1 ± 0.9 cP

Cc1cccc(C)c1NC(=O)C1CCCCN1C (stereo not drawn) [Mepivacaine HCl, reference compound]
Viscosity ([1]; 223 mg/mL mAb, agent […], 25° C.): 129 ± 3 cP | Viscosity ([3]; 185 mg/mL mAb, […] agent): 46.8 ± 0.6 cP

CCN(CC)CCNC(=O)c1cc(Cl)c(N)cc1OC [Metoclopramide HCl, reference compound]
Viscosity [1, 12]: 64.4 ± 1.6 cP | Viscosity ([3]; 194 mg/mL mAb, […] agent): 39.3 ± 0.4 cP

COc1c(N2C[C@@H]3CCCN[C@@H]3C2)c(F)cc2c(=O)c(C(=O)O)cn(C3CC3)c12 [Moxifloxacin HCl, reference compound]
Viscosity ([2]; 186 mg/mL mAb, […] agent, 25° C.): 66.7 ± 1.0 cP

Cl.[Cl-].c1cc[n+](-c2ccncc2)cc1 [N-(4-Pyridiyl)pyridinium Cl HCl]
Viscosity [1, 11]: 68.5 ± 1.1 cP

[Cl-].[Na+] [NaCl, reference compound]
Viscosity [1, 8]: 121 ± 8 cP

NC(=O)c1cccnc1 [Nicotinamide]
Viscosity ([2]; 232 mg/mL mAb, […] agent, 25° C.): 292 ± 10 cP

CNC[C@H](O)c1cccc(O)c1 [Phenylephrine HCl, reference compound]
Viscosity ([1]; 201 mg/mL mAb, agent […], 25° C.): 108 ± 1 cP | Viscosity ([2]; 183 mg/mL mAb, […] agent, 25° C.): 54.1 ± 2.9 cP

CCN1CCN(C(=O)N[C@@H](C(=O)N[C@@H]2C(=O)N3[C@@H]2SC(C)(C)[C@@H]3C(=O)O)c2ccccc2)C(=O)C1=O [Piperacillin sodium salt, reference compound]
Viscosity [1, 13]: 197 ± 5 cP | Viscosity ([3]; 194 mg/mL mAb, […] agent): 127 ± 2 cP

Cc1ncc(CO)c(CO)c1O [Pyridoxine]
Viscosity ([1]; 227 mg/mL mAb, agent […], 25° C.): 107 ± 0 cP

ClC=CC[N+]12CN3CN(CN(C3)C1)C2.[Cl-] [Quaternium 15]
Viscosity ([3]; 221 mg/mL mAb, […] agent): 135 ± 5 cP

Cc1cc2nc3c(=O)[nH]c(=O)nc-3n(C[C@H](O)[C@H](O)[C@H](O)COP(=O)([O-])O)c2cc1C.[Na+] [Riboflavin-5-phosphate]
Viscosity [1, 14]: 131 ± 4 cP | Viscosity ([2]; 237 mg/mL mAb, 0.10M agent, 25° C.): 492 ± 9 cP

OC[C@H]1O[C@H](O[C@]2(CCl)O[C@H](CCl)[C@@H](O)[C@@H]2O)[C@H](O)[C@@H](O)[C@H]1Cl [Sucralose]
Viscosity [1, 12]: 147 ± 4 cP | Viscosity ([3]; 234 mg/mL mAb, […] agent): 111 ± 8 cP

CC(=O)[N-]S(=O)(=O)c1ccc(N)cc1.[Na+] [Sulfacetamide-Na, reference compound]
Viscosity ([1]; 214 mg/mL mAb, agent […], 25° C.): 113 ± 1 cP

CNS(=O)(=O)Cc1ccc2[nH]cc(CCN(C)C)c2c1 [Sumatriptan Succinate, reference compound]
Viscosity ([1]; 212 mg/mL mAb, agent 0.25M, 25° C.): 93.2 ± 2.7 cP

O=P1([O-])OP(=O)([O-])OP(=O)([O-])O1.[Na+].[Na+].[Na+] [Trimetaphosphate-3Na]
Viscosity ([1]; 211 mg/mL mAb, agent […], 25° C.): 121 ± 6 cP | Viscosity ([3]; 199 mg/mL mAb, […] agent): 126 ± 3.3 cP

CSA 1-(3-aminopropyl)-2-methyl-1H-imidazole [CSAAPMI-2HCl]
Viscosity ([1]; 210 mg/mL mAb, 0.25 M agent, 25° C., pH 7.0): 40.9 ± 0.5 cP | Viscosity [1, 15]: 71.8 ± 3.2 cP

CSA betaine
Viscosity [1, 8]: 66.0 ± 0.7 cP

CSA carnitine
Viscosity [1, 8]: 72.4 ± 1.7 cP

CSA dimethylpiperazine
Viscosity [1, 8]: 47.4 ± 1.3 cP | Viscosity [1, 16]: 51.7 ± 0.9 cP

CSA-1-o-tolybiguanide
Viscosity ([1]; 228 mg/mL mAb, agent […], 25° C.): 121 ± 1 cP | Viscosity ([3]; 190 mg/mL mAb, […] agent): 40.4 ± 1.9 cP

CSA-Na-Creatinine
Viscosity ([1]; 202 mg/mL mAb, agent […], 25° C.): 38.4 ± 0.9 cP | Viscosity ([3]; 190 mg/mL mAb, 0.3M agent): 33.3 ± 1.1 cP

CSA-Na-aminocyclohexane carboxylic acid
Viscosity [1, 14]: 69.2 ± 3.7 cP | Viscosity ([3]; 191 mg/mL mAb, […] agent): 61.3 ± 2.5 cP

CSA-Tris
Viscosity ([1]; 197 mg/mL mAb, agent […], 25° C.): 50 ± 1 cP | Viscosity [1, 13]: 64.4 ± 1.4 cP | Viscosity ([3]; 191 mg/mL mAb, […] agent): 59.1 ± 0.7 cP

CSAthiamine-2NaCl
Viscosity ([1]; 228 ± 5 mg/mL mAb, agent […], 25° C., pH 7.0): 83.7 ± 2.2 cP | Viscosity reduction ([1]; ~230 mg/mL mAb, vs PB, Table 12): approximately 5 fold

Chlorotheophylline arginine
Viscosity [1, 8]: 104.5 ± 6.5 cP

Ethandisulfonate diarginine
Viscosity [1, 8]: 105 ± 4 cP | Viscosity [1, 9]: 77.1 ± 0.3 cP

Sulfosalicylic acid dilysine
Viscosity [1, 15]: 73.4 ± 0.4 cP

Toluenesulfonic acid arginine
Viscosity [1, 8]: 159 ± 5 cP

Toluenesulfonic acid lysine
Viscosity [1, 8]: 118 ± 1 cP

diCSA cadaverine
Viscosity [1, 8]: 85.5 ± 5.2 cP | Viscosity [1, 16]: 65.6 ± 1.6 cP

naphthalenesulfonic acid arginine [NSAA]
Viscosity [2, 4]: 69.4 ± 0.6 cP | Viscosity [2, 5]: 103 ± 0 cP | Viscosity [2, 6]: 69.4 ± 0.6 cP | Viscosity [2, 7]: 60.9 ± 4.3 cP | Fold Reduction [2, 4]: 16.3 fold
